Target: T1, Glk1 (Saccharomyces cerevisiae, UniProt P17709, F3S)
T1 sequence (P17709 1-500 F3S): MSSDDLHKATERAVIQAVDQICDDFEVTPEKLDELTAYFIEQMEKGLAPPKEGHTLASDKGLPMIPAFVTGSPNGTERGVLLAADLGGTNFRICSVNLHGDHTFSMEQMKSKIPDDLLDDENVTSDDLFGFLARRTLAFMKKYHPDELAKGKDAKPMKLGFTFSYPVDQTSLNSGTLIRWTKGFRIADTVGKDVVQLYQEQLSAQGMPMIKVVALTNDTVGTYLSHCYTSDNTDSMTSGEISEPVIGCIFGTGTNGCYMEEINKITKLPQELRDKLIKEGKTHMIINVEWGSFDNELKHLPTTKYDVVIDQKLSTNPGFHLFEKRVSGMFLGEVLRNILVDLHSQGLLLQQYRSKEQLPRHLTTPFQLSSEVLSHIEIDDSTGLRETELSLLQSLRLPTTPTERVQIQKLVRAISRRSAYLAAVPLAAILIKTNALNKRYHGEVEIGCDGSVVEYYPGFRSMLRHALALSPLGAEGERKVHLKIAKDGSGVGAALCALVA
Test: enzyme activity versus Glk1 concentration
Type: biochemical
Details: non-polymerizing mutant

## OC[C@H]1OC(O)[C@H](O)[C@@H](O)[C@@H]1O (stereo partly shown) [glucose]
  enzyme activity versus Glk1 concentration: NonPol-Glk1 was enzymatically active but lacked the concentration-dependent inhibition of wild-type Glk1

Reference: article PMC7846450 (Science (New York, N.Y.), 2020)
